In series [1] the test system is MNU induced bladder tumors. Particulars: intravesical, Fisher 344 rats; Graham et al. 1995; cited from earlier work.
The test system of series [2] is MNU-induced rat bladder transitional cell carcinoma. The method, then: (1972) and modified by Steinberg, et al. (1990). Animals: Four to five week old female Fisher 344 rats (avg. Wt. 200 g) were used in all cohorts on this trial. All animals received 5 mg/200 g body weight intraperitoneal gentamicin (50 mg/ml) as antibacterial prophylaxis one hour prior to each bladder catheterization. MNU dose and schedule: 100 mg of MNU (Sigma, St. Louis, Mo.) were dissolved in 10 ml of sodium acetate (CH3 COONa), pH of a solution=6.5. Five mg/200 g body weight of this solution (0.5 ml) was instilled intravesically via a 22-gauge teflon angiocatheter under a continuous flow hood within 45 minutes of preparing the MNU solution every other week for a total of 4 doses (8 weeks). […] (Mol. Wt. 8000 Da.-Sigma, St. Louis, Mo.) Beginning at week four, 20 of the animals received intravesical dextran sulfate, 10 mg/200 g body weight twice a week for four weeks. The remaining 20 animals received saline on the same schedule. Tissue Preparations: The urinary bladder were excised, filled and fixed with 10% neutral buffered formalin, and then embedded in paraffin. The bladders were sectioned every 2 mm and 5-micron sections were stained with hematoxylin and eosin.

In series [3] the test system is epidermal growth factor (EGF) binding to T24 cells. As to the kind of experiment: 125I-EGF growth factor receptor binding to T24 cells. Further details: species or system human. The method, then:
Method: Growth factor receptor binding studies were performed using T24 high grade human bladder tumor cell line. Cells were incubated with […] ^125 I-Insulin like growth factor-1 (^125 I-IGF-1) or ^125 I-epidermal growth factor (^125 I-EGF) and varying concentration of unlabeled growth factor or dextran sulfate in 1 ml of binding assay buffer. After incubation at 4° C. for 10 to 12 hours, the assay buffer was removed and the cultures washed three times. The cells and receptor-bound growth factors were then solubilized in 1 ml of […] before being quantitated in a gamma radiation counter.

The test system of the next series is T24 cells. As to the kind of experiment: Proliferation of human transitional cell carcinoma cultures (crystal violet, A540 ratio day one/day eight). Format: cell-based. The settings on record: 10 mM dextran sulfate; day eight; p<0.0001. The method, then:
Method: Cultures of two urothelial carcinoma cell lines, HT 1376 and T24 were obtained from the American Type Culture Collection and propagated in Dulbecco's Modified Eagles Medium (DMEM) supplemented with 10% fetal bovine serum (FBS). The HT1376 and T24 cells were plated into 96 well polystyrene trays in 0.1 ml of medium at densities of 5000 and 2500 cells/wells respectively. After overnight incubation, medium was replaced with DMEM containing various FBS and dextran sulfate concentrations. Each FBS and dextran sulfate concentration was tested in quadruplicated wells. On day eight the cells were fixed with glutaraldehyde, stained with 0.1% crystal violet and absorbance at 540 nm was quantitated in a (Bio-Rad) microplate spectrophotometer.
Results: The ratio of A540 values in day one and day eight was used to indicate cell proliferation.

Series [4] concerns human urinary bladder carcinoma cells. Particulars: Sorimachi et al. 1992; cited from earlier work.

Take `Cc1ccc(C(=O)Nc2ccc(S(=O)(=O)O)c3cc(S(=O)(=O)O)cc(S(=O)(=O)O)c23)cc1NC(=O)c1cccc(NC(=O)Nc2cccc(C(=O)Nc3cc(C(=O)Nc4ccc(S(=O)(=O)O)c5cc(S(=O)(=O)O)cc(S(=O)(=O)O)c45)ccc3C)c2)c1` [Suramin]: the “in-vivo action on MNU induced bladder tumors” value in series [1] is reported as “intravesical inhibition of MNU induced bladder tumors”.
For the molecule dextran sulfate, the “prevention of development of transitional cell carcinoma of the bladder” value in series [2] (intravesical, 10 mg/200 g body weight twice a week for four weeks, from week four) is “effectively prevents the development of transitional cell carcinoma of the bladder”. The “side effects or histopathologic changes in urinary bladders” value in series [2] (rat, in vivo) is on record as “did not cause any significant side effects or histopathologic changes”. The EGF binding in series [3] (dextran sulfate 10 mM) is given as 115 % of control; in series [3] (dextran sulfate 1-2 mM), 80 % of control binding. The “T24 cell proliferation inhibition” value with T24 cells is recorded as “completely inhibited”. Also, in series [4], the “inhibitory effect on growth of human urinary bladder carcinoma cells in culture” value is recorded as “failed to observe an inhibitory effect”.
